# In patent US10807992B2, “Single enantiomer antiparasitic compounds” (priority 2017, dated 2020):
# Like-named read-outs stand apart in the source and are kept apart here.
# System: Aedes aegypti
# Experiment: In vitro contact activity against adult mosquitoes (coated vial)
# Method: Aedes aegypti (Louisiana Biologicals Inc., New Orleans, La.) eggs were allowed to hatch, close, and age between 3-5 days in an environmental chamber at 26° C., 80% humidity with light/dark cycles.
# For mosquito assays, an aliquot from each compound stock was added to an acetone/triton solution to achieve the desired top doses for the study. Serial dilutions were conducted from the top dose (i.e. 50 ppm) to achieve the desired titration range for EC50 and EC90 determination. The final DMSO concentration in each test vial was 0.5%. A 459 μL aliquot of each compound formulation was transferred to a vial and vials were immediately placed on an unheated roller unit to allow for an even coating of the vial walls. The vials were loosely capped and allowed to dry for a minimum of four hours in a chemical fume hood.
# For both contact and ingestion assays, five female Aedes aegypti adults were added to each vial or cage. The test vials for contact assays were held in an environmental chamber at 24° C., 80% humidity with light/dark cycles (12 hours each). The cages for mosquito ingestion assays were held in a temperature-controlled artificial feeding apparatus to allow continual access to organic bovine blood containing the desired concentration of compound. Fresh aliquots of compound-spiked bovine blood were provided daily for the duration of the study.
# Mosquitoes showing no movement or mosquitoes that were knocked down were noted as dead. Results from trial 1 and trial 2 contact assays are shown in Tables 12 and 13, respectively and the results from trial 3 mosquito ingestion assay is shown in table 14.
# For the mosquito contact and ingestion assays, each replicate contained 5 mosquitoes. For ease of calculation, the two replicates were added to equal a total of 10 mosquitoes.
structure (smiles),measurement,setting,value
"O=C(CC(F)(F)F)N1CC2(C1)OCc1cc(C3=NS[C@@](c4cc(Cl)c(F)c(Cl)c4)(C(F)(F)F)C3)ccc12 [C1 (S) enantiomer, (S)-1-[6-[5-(3,5-dichloro-4-fluoro-phenyl)-5-(trifluoromethyl)-4H-isothiazol-3-yl]spiro[1H-isobenzofuran-3,3′-azetidine]-1′-yl]-3,3,3-trifluoro-propan-1-one]",mortality at 0.049 µM,"0.5 h, read-out: % Mortality R1 + R2, Trial 1, contact assay, dose 0.049 μM, 0.5 Hr",0%
same,mortality at 0.2 µM,"0.5 h, read-out: % Mortality R1 + R2, Trial 1, contact assay, dose 0.20 μM, 0.5 Hr",0%
same,mortality at 0.78 µM,"0.5 h, read-out: % Mortality R1 + R2, Trial 1, contact assay, dose 0.78 μM, 0.5 Hr",0%
same,mortality at 3.125 µM,"0.5 h, read-out: % Mortality R1 + R2, Trial 1, contact assay, dose 3.125 μM, 0.5 Hr",0%
same,mortality at 12.5 µM,"0.5 h, read-out: % Mortality R1 + R2, Trial 1, contact assay, dose 12.5 μM, 0.5 Hr",0%
same,mortality at 50 µM,"0.5 h, read-out: % Mortality R1 + R2, Trial 1, contact assay, dose 50 μM, 0.5 Hr",0%
same,mortality at 0.049 µM,"0.5 h, read-out: % Mortality R1 + R2, Trial 2, contact assay, dose 0.049 μM, 0.5 Hr",0%
same,mortality at 0.2 µM,"0.5 h, read-out: % Mortality R1 + R2, Trial 2, contact assay, dose 0.20 μM, 0.5 Hr",0%
same,mortality at 0.78 µM,"0.5 h, read-out: % Mortality R1 + R2, Trial 2, contact assay, dose 0.78 μM, 0.5 Hr",0%
same,mortality at 3.125 µM,"0.5 h, read-out: % Mortality R1 + R2, Trial 2, contact assay, dose 3.125 μM, 0.5 Hr",0%
same,mortality at 12.5 µM,"0.5 h, read-out: % Mortality R1 + R2, Trial 2, contact assay, dose 12.5 μM, 0.5 Hr",0%
same,mortality at 50 µM,"0.5 h, read-out: % Mortality R1 + R2, Trial 2, contact assay, dose 50 μM, 0.5 Hr",0%
same,mortality at 0.049 µM,"1 h, read-out: % Mortality R1 + R2, Trial 1, contact assay, dose 0.049 μM, 1 hr",0%
same,mortality at 0.2 µM,"1 h, read-out: % Mortality R1 + R2, Trial 1, contact assay, dose 0.20 μM, 1 hr",0%
same,mortality at 0.78 µM,"1 h, read-out: % Mortality R1 + R2, Trial 1, contact assay, dose 0.78 μM, 1 hr",0%
same,mortality at 3.125 µM,"1 h, read-out: % Mortality R1 + R2, Trial 1, contact assay, dose 3.125 μM, 1 hr",0%
same,mortality at 12.5 µM,"1 h, read-out: % Mortality R1 + R2, Trial 1, contact assay, dose 12.5 μM, 1 hr",0%
same,mortality at 50 µM,"1 h, read-out: % Mortality R1 + R2, Trial 1, contact assay, dose 50 μM, 1 hr",0%
same,mortality at 0.049 µM,"1 h, read-out: % Mortality R1 + R2, Trial 2, contact assay, dose 0.049 μM, 1 hr",0%
same,mortality at 0.2 µM,"1 h, read-out: % Mortality R1 + R2, Trial 2, contact assay, dose 0.20 μM, 1 hr",0%
same,mortality at 0.78 µM,"1 h, read-out: % Mortality R1 + R2, Trial 2, contact assay, dose 0.78 μM, 1 hr",0%
same,mortality at 3.125 µM,"1 h, read-out: % Mortality R1 + R2, Trial 2, contact assay, dose 3.125 μM, 1 hr",0%
same,mortality at 12.5 µM,"1 h, read-out: % Mortality R1 + R2, Trial 2, contact assay, dose 12.5 μM, 1 hr",0%
same,mortality at 50 µM,"1 h, read-out: % Mortality R1 + R2, Trial 2, contact assay, dose 50 μM, 1 hr",0%
same,mortality at 0.049 µM,"6 h, read-out: % Mortality R1 + R2, Trial 1, contact assay, dose 0.049 μM, 6 hr",0%
same,mortality at 0.2 µM,"6 h, read-out: % Mortality R1 + R2, Trial 1, contact assay, dose 0.20 μM, 6 hr",0%
same,mortality at 0.78 µM,"6 h, read-out: % Mortality R1 + R2, Trial 1, contact assay, dose 0.78 μM, 6 hr",0%
same,mortality at 3.125 µM,"6 h, read-out: % Mortality R1 + R2, Trial 1, contact assay, dose 3.125 μM, 6 hr",0%
same,mortality at 12.5 µM,"6 h, read-out: % Mortality R1 + R2, Trial 1, contact assay, dose 12.5 μM, 6 hr",30%
same,mortality at 50 µM,"6 h, read-out: % Mortality R1 + R2, Trial 1, contact assay, dose 50 μM, 6 hr",100%
same,mortality at 0.049 µM,"6 h, read-out: % Mortality R1 + R2, Trial 2, contact assay, dose 0.049 μM, 6 hr",0%
same,mortality at 0.2 µM,"6 h, read-out: % Mortality R1 + R2, Trial 2, contact assay, dose 0.20 μM, 6 hr",0%
same,mortality at 0.78 µM,"6 h, read-out: % Mortality R1 + R2, Trial 2, contact assay, dose 0.78 μM, 6 hr",0%
same,mortality at 3.125 µM,"6 h, read-out: % Mortality R1 + R2, Trial 2, contact assay, dose 3.125 μM, 6 hr",0%
same,mortality at 12.5 µM,"6 h, read-out: % Mortality R1 + R2, Trial 2, contact assay, dose 12.5 μM, 6 hr",10%
same,mortality at 50 µM,"6 h, read-out: % Mortality R1 + R2, Trial 2, contact assay, dose 50 μM, 6 hr",100%
same,mortality at 0.049 µM,"12 h, read-out: % Mortality R1 + R2, Trial 1, contact assay, dose 0.049 μM, 12 hr",0%
same,mortality at 0.2 µM,"12 h, read-out: % Mortality R1 + R2, Trial 1, contact assay, dose 0.20 μM, 12 hr",0%
same,mortality at 0.78 µM,"12 h, read-out: % Mortality R1 + R2, Trial 1, contact assay, dose 0.78 μM, 12 hr",0%
same,mortality at 3.125 µM,"12 h, read-out: % Mortality R1 + R2, Trial 1, contact assay, dose 3.125 μM, 12 hr",10%
same,mortality at 12.5 µM,"12 h, read-out: % Mortality R1 + R2, Trial 1, contact assay, dose 12.5 μM, 12 hr",70%
same,mortality at 50 µM,"12 h, read-out: % Mortality R1 + R2, Trial 1, contact assay, dose 50 μM, 12 hr",100%
same,mortality at 0.049 µM,"12 h, read-out: % Mortality R1 + R2, Trial 2, contact assay, dose 0.049 μM, 12 hr",0%
same,mortality at 0.2 µM,"12 h, read-out: % Mortality R1 + R2, Trial 2, contact assay, dose 0.20 μM, 12 hr",10%
same,mortality at 0.78 µM,"12 h, read-out: % Mortality R1 + R2, Trial 2, contact assay, dose 0.78 μM, 12 hr",0%
same,mortality at 3.125 µM,"12 h, read-out: % Mortality R1 + R2, Trial 2, contact assay, dose 3.125 μM, 12 hr",20%
same,mortality at 12.5 µM,"12 h, read-out: % Mortality R1 + R2, Trial 2, contact assay, dose 12.5 μM, 12 hr",100%
same,mortality at 50 µM,"12 h, read-out: % Mortality R1 + R2, Trial 2, contact assay, dose 50 μM, 12 hr",100%
same,mortality at 0.049 µM,"24 h, read-out: % Mortality R1 + R2, Trial 1, contact assay, dose 0.049 μM, 24 hr",0%
same,mortality at 0.2 µM,"24 h, read-out: % Mortality R1 + R2, Trial 1, contact assay, dose 0.20 μM, 24 hr",0%
same,mortality at 0.78 µM,"24 h, read-out: % Mortality R1 + R2, Trial 1, contact assay, dose 0.78 μM, 24 hr",0%
same,mortality at 3.125 µM,"24 h, read-out: % Mortality R1 + R2, Trial 1, contact assay, dose 3.125 μM, 24 hr",60%
same,mortality at 12.5 µM,"24 h, read-out: % Mortality R1 + R2, Trial 1, contact assay, dose 12.5 μM, 24 hr",100%
same,mortality at 50 µM,"24 h, read-out: % Mortality R1 + R2, Trial 1, contact assay, dose 50 μM, 24 hr",100%
same,mortality at 0.049 µM,"24 h, read-out: % Mortality R1 + R2, Trial 2, contact assay, dose 0.049 μM, 24 hr",0%
same,mortality at 0.2 µM,"24 h, read-out: % Mortality R1 + R2, Trial 2, contact assay, dose 0.20 μM, 24 hr",30%
same,mortality at 0.78 µM,"24 h, read-out: % Mortality R1 + R2, Trial 2, contact assay, dose 0.78 μM, 24 hr",0%
same,mortality at 3.125 µM,"24 h, read-out: % Mortality R1 + R2, Trial 2, contact assay, dose 3.125 μM, 24 hr",100%
same,mortality at 12.5 µM,"24 h, read-out: % Mortality R1 + R2, Trial 2, contact assay, dose 12.5 μM, 24 hr",100%
same,mortality at 50 µM,"24 h, read-out: % Mortality R1 + R2, Trial 2, contact assay, dose 50 μM, 24 hr",100%
same,mortality at 0.049 µM,"48 h, read-out: % Mortality R1 + R2, Trial 1, contact assay, dose 0.049 μM, 48 hr",0%
same,mortality at 0.2 µM,"48 h, read-out: % Mortality R1 + R2, Trial 1, contact assay, dose 0.20 μM, 48 hr",10%
same,mortality at 0.78 µM,"48 h, read-out: % Mortality R1 + R2, Trial 1, contact assay, dose 0.78 μM, 48 hr",10%
same,mortality at 3.125 µM,"48 h, read-out: % Mortality R1 + R2, Trial 1, contact assay, dose 3.125 μM, 48 hr",100%
same,mortality at 12.5 µM,"48 h, read-out: % Mortality R1 + R2, Trial 1, contact assay, dose 12.5 μM, 48 hr",100%
same,mortality at 50 µM,"48 h, read-out: % Mortality R1 + R2, Trial 1, contact assay, dose 50 μM, 48 hr",100%
same,mortality at 0.049 µM,"48 h, read-out: % Mortality R1 + R2, Trial 2, contact assay, dose 0.049 μM, 48 hr",0%
same,mortality at 0.2 µM,"48 h, read-out: % Mortality R1 + R2, Trial 2, contact assay, dose 0.20 μM, 48 hr",90%
same,mortality at 0.78 µM,"48 h, read-out: % Mortality R1 + R2, Trial 2, contact assay, dose 0.78 μM, 48 hr",100%
same,mortality at 3.125 µM,"48 h, read-out: % Mortality R1 + R2, Trial 2, contact assay, dose 3.125 μM, 48 hr",100%
same,mortality at 12.5 µM,"48 h, read-out: % Mortality R1 + R2, Trial 2, contact assay, dose 12.5 μM, 48 hr",100%
same,mortality at 50 µM,"48 h, read-out: % Mortality R1 + R2, Trial 2, contact assay, dose 50 μM, 48 hr",100%
